Each structure is given as a SMILES string.

Holding throughout (type): cell-based
One assay deals with Staphylococcus aureus. Put plainly: Agar plate disc-diffusion, antibacterial inhibition zone. The conditions noted are these: nutrient agar, 37° C., 48 hours, DMSO control zone subtracted. On the procedure: (§1) The agar plate disc-diffusion method was applied. […] The discs were then placed onto the surface of agar plates (nutrient agar for bacteria and Sabouraud's dextrose agar for fungi) seeded with the test organism. Each plate contained 15 mL of the agar medium, previously seeded with 0.2 mL of the broth culture of each organism pregrown for 18 hours. The plates were incubated at 37° C. for 48 hours, and 72 hours for fungi. The inhibition zones was measured in mm. Discs impregnated with DMSO were used as a control, and its inhibition zone was subtracted from the tested compound actual inhibition zone.
In general terms: In agar diffusion tests the substance spreads into inoculated agar from a disc or well.

For a further assay, the system named is Escherichia coli. Described as above. As to conditions: nutrient agar, 37° C., 48 hours, DMSO control zone subtracted. On the procedure: as §1
The test system of a further assay is Pseudomonas aeruginosa. Described as above. As to conditions: nutrient agar, 37° C., 48 hours, DMSO control zone subtracted. On the procedure:
as §1

In the next assay the test system is Bacillus cereus. Described as above. As to conditions: nutrient agar, 37° C., 48 hours, DMSO control zone subtracted. As to the method:
as §1

The subject of assay [1] is Chrysosporium keratinophilum. As to the kind of experiment: Agar plate disc-diffusion, antifungal inhibition zone. As to conditions: Sabouraud's dextrose agar, 72 hours, DMSO control zone subtracted. On the procedure: as §1
For another assay, the system named is Aspergillus flavus. The description is as above. The conditions noted are these: Sabouraud's dextrose agar, 72 hours, DMSO control zone subtracted. As to the method: as §1
Where [2] appears, read: A = concentration of comp. = 10,000 μL.
Where [3] appears, read: B = concentration of comp. = 30,000 μL.
The mark [4] stands for this setting: C = concentration of comp. = 50,000 μL.

Turning to `COc1ccc(-c2nc(-c3ccc(Br)cc3)c(-c3ccc(Br)cc3)n2CCCCC(=O)O)cc1` [V, 5-(4,5-bis(4-bromophenyl)-2-(4-methoxyphenyl)-1H-imidazol-1-yl)pentanoic acid], the “inhibition zone, Staphylococcus aureus, A” value with Staphylococcus aureus (setting [2]) was 15 mm. Besides, in the assay on Staphylococcus aureus (setting [3]), the “inhibition zone, Staphylococcus aureus, B” value came to 22 mm. Moreover, the “inhibition zone, Staphylococcus aureus, C” value with Staphylococcus aureus (setting [4]) came out at 31 mm. Moreover, in the assay with Escherichia coli (setting [2]), the “inhibition zone, Escherichia coli, A” value turned out to be 30 mm. For the same compound, in the assay with Escherichia coli (setting [3]), the “inhibition zone, Escherichia coli, B” value came to 40 mm. For the same compound, the “inhibition zone, Escherichia coli, C” value in the assay with Escherichia coli (setting [4]) stood at 55 mm. Moreover, in the assay on Pseudomonas aeruginosa (setting [2]), the “inhibition zone, Pseudomonas aeruginosa, A” value is listed as 26 mm. Further, the “inhibition zone, Pseudomonas aeruginosa, B” value in the assay with Pseudomonas aeruginosa (setting [3]) is 29 mm. Moreover, in the assay with Pseudomonas aeruginosa (setting [4]), the “inhibition zone, Pseudomonas aeruginosa, C” value worked out at 40 mm. For the same compound, the “inhibition zone, Bacillus Cereus, A” value in the assay on Bacillus cereus (setting [2]) came out at 28 mm. The “inhibition zone, Bacillus Cereus, B” value with Bacillus cereus (setting [3]) is given as 29 mm. Besides, in the assay on Bacillus cereus (setting [4]), the “inhibition zone, Bacillus Cereus, C” value was 39 mm. The “inhibition zone, Chrysosporium keratinophilum, A” value in assay [1] (setting [2]) turned out to be 26 mm. The “inhibition zone, Chrysosporium keratinophilum, B” value in assay [1] (setting [3]) is recorded as 27 mm. For the same compound, in assay [1] (setting [4]), the “inhibition zone, Chrysosporium keratinophilum, C” value was 45 mm. Further, the “inhibition zone, Aspergillus flavus, A” value in the assay with Aspergillus flavus (setting [2]) is listed as 22 mm. Besides, in the assay on Aspergillus flavus (setting [3]), the “inhibition zone, Aspergillus flavus, B” value is on record as 25 mm. The “inhibition zone, Aspergillus flavus, C” value in the assay with Aspergillus flavus (setting [4]) is 33 mm.

The values above are taken from US11919867B1, “5-(4,5-bis(4-bromophenyl)-2-(4-methoxyphenyl)-1H-imidazol-1-yl)pentanoic acid as an antimicrobial compound” (KING FAISAL UNIVERSITY, priority 2023, dated 2024).
